Assay results taken from patent US20260176289A1, “SMALL MOLECULE INHIBITORS OF KRAS PROTEINS” (Merck Sharp & Dohme LLC, priority 2022, published 2026).
Like-named read-outs stand apart in the source and are kept apart here.

Tests used:
KRAS-WT = KRAS-WT (Homo sapiens, UniProt P01116); assay: SOS-catalyzed nucleotide exchange assay (Procedure A, TR-FRET), KRAS-WT; assay type: biochemical; conditions: nucleotide exchange, read-out: KRAS WT GNE IC50
Outline: (§1)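 TR-FRET 520/495 nm ratio read after SOS-driven exchange of Bodipy-GDP for unlabeled GTP (3 mM) on biotinylated RAS bound to Tb-streptavidin. There was a 60 min compound preincubation, RT. Final RAS/SOS and reaction times: G12C 3 nM/40 nM; WT 1 nM/40 nM; NRAS 1.25 nM/40 nM, each 60 min. G12V was 1.25 nM/160 nM, 90 min.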

KRAS-G12D = KRAS-G12D (Homo sapiens, UniProt P01116, G12D); assay: SOS-catalyzed nucleotide exchange assay (Procedure A, TR-FRET), KRAS-G12D; assay type: biochemical; conditions: nucleotide exchange, read-out: KRAS G12D GNE IC50
Outline: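 Signal ratio (520/495 nm, excitation 340 nm) reports Bodipy-GDP retention on biotinylated RAS after SOS-catalyzed exchange with 3 mM GTP. SOS was 40 nM, except 160 nM for G12V. Room-temperature exchange lasted 60 min (90 min for G12V), following a 60 min compound preincubation.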

KRAS-G12V = KRAS-G12V (Homo sapiens, UniProt P01116, G12V); assay: SOS-catalyzed nucleotide exchange assay (Procedure A, TR-FRET), KRAS-G12V; assay type: biochemical; conditions: nucleotide exchange, read-out: KRAS G12V GNE IC50
Outline: as §1

MKN-1 cells = assay: Cellular phospho-ERK assay, MKN-1 cells (amplified wild-type KRAS); assay type: cell-based; conditions: Homo sapiens, read-out: MKN1 pERK IC50
Description: (§2) Procedure for Cellular Phospho-ERK Assay in KRAS Wild Type and Mutant (G12D, G12V) Cell Lines
(§3) MKN-1 cells (JCRB JCRB0252) containing amplified wild-type KRAS, were cultured in growth medium that contains RPMI 1640-GlutaMAX™-I (ThermoFisher Scientific 61870) containing 10% heat inactivated fetal bovine serum (ThermoFisher Scientific 10091148), 1 mM sodium pyruvate and 10 mM HEPES. PANC08.13 cells (ATCC® CRL-2551™), containing homozygous KRAS-G12D activating mutation, were cultured in growth medium made of RPMI1640-GlutaMAX™-I (ThermoFisher Scientific 61870) containing 15% heat inactivated fetal bovine serum (ThermoFisher Scientific 10091148)). AsPC-1 cells (ATCC® CRL-1682™), containing homozygous KRAS-G12D activating mutation, were cultured in T150 flask in growth medium (RPMI medium 1640-GlutaMAX™-I (ThermoFisher Scientific 61870) containing 10% fetal bovine serum (ThermoFisher Scientific 10091148)). SW620 cells (ATCC® […]), containing homozygous KRAS-G12V activating mutation, were cultured in growth medium that contains RPMI 1640-GlutaMAX™-I (ThermoFisher Scientific 61870) containing 10% heat inactivated fetal bovine serum (ThermoFisher Scientific 10091148).
(§4) Cells for the assay were harvested in growth medium after TrypLE (ThermoFisher scientific 12604021) digestion and were seeded in a 384-well collagen coated cell culture plate (Corning 356702) at a density of 10,000-15,000 cells/20 μL/well, and incubated at 37° C., 5% CO2 overnight. The compound (with 10 mM stock concentration) dose-response titrations were prepared [30 μM final ERK detection assay concentration and 1:3 dilutions, 10-point dose response] and appropriate amounts (270 nL) of test compounds were dispensed in a 384-well intermediate plate using an Echo 550 liquid handler. 30 μL/well of RPMI medium 1640-GlutaMAX™—I was added to the intermediate plate and the contents of the intermediate plate (10 μL/well) were then transferred to the 384-well collagen coated cell culture plate, which was incubated at 37° C., 5% CO2 for 2 hours. After removal of medium from the collagen coated cell culture plate, cells were lysed in lysis buffer from Alpha SureFire® Ultra™ Multiplex p-ERK and total ERK assay kit (PerkinElmer MPSU-PTERK) containing Halt™ Protease and Phosphatase inhibitor cocktail (ThermoFisher Scientific 78446) at room temperature with constant shaking at 300 rpm for 30 minutes. The cell lysates were then transferred to an OptiPlate-384 plate (PerkinElmer 6005620), and the phosphorylation of ERK (p-ERK) and total ERK levels were detected by Alpha SureFire® Ultra™ Multiplex p-EEK kit and total ERK assay kit (PerkinElmer MPSU-PTERK) following the manufacturer's protocol. Assay plates were read on a En Vision Multimode Plate Reader (PerkinElmer), and the ratio of p-ERK vs. total ERK in each well was used as the final readout. Dose response curves were analyzed using a 4-parameter logistic model to calculate IC50 values using Spotfire software.

AsPC-1 cells = assay: Cellular phospho-ERK assay, AsPC-1 cells (homozygous KRAS-G12D); assay type: cell-based; conditions: Homo sapiens, ASPC1, 2 h, read-out: AsPC1 pERK IC50
Outline: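 10k–15k cells/well, o/n attach; cpd 2 h, 37 °C, 10-pt 1:3 from 30 μM final; lyse with protease/phosphatase inhibitors 30 min RT; multiplex SureFire p-ERK + total ERK; IC50 via 4PL on ratio.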

SW620 cells = assay: Cellular phospho-ERK assay, SW620 cells (homozygous KRAS-G12V); assay type: cell-based; conditions: Homo sapiens, read-out: SW620 pERK IC50
Description: as §2, §3, §4

[1] = amplified wild-type KRAS, 2 hours
[2] = SW-620, 2 hours compound incubation

Sequence of KRAS-G12D (P01116 with tags, fused parts or gaps isoform P01116-2 G12D): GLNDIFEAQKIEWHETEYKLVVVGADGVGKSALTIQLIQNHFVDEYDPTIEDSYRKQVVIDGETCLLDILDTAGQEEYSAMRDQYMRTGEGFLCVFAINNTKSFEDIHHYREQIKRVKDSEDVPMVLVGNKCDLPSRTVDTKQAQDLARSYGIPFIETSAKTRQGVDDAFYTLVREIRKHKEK
Sequence of KRAS-G12V (P01116 with tags, fused parts or gaps isoform P01116-2 G12V): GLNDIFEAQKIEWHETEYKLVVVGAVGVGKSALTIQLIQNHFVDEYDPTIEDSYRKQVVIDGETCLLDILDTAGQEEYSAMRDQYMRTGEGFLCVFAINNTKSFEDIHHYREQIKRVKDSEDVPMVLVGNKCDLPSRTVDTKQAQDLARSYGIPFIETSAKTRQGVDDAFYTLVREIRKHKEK
Sequence of KRAS-WT (P01116 with tags, fused parts or gaps isoform P01116-2): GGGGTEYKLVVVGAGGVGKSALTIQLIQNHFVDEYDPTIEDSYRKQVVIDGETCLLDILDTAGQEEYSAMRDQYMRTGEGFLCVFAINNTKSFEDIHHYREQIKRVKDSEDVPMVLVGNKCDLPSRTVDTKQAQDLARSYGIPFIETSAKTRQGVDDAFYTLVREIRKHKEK

Compound | IC50 (KRAS-WT) [nM] | IC50 (KRAS-G12D) [nM] | IC50 (KRAS-G12V) [nM] | IC50 (MKN-1 cells; 2 hours compound incubation) [nM] | IC50 (AsPC-1 cells; 2 hours compound incubation) [nM] | IC50 (SW620 cells; [2]) [nM] | IC50 (MKN-1 cells; [1]) [nM] | IC50 (AsPC-1 cells; KRAS-G12D, 2 hours) [nM] | IC50 (SW620 cells; SW-620, KRAS-G12V, 2 hours) [nM]
C=C1CCCc2cc3[nH]ncc3c(-c3nccc4c3sc3nc(OC[C@@]56CCCN5C[C@H](F)C6)nc(N5CCOC[C@@](C)(O)C5)c34)c21 [Ex-115, (6S)-4-(2-(((2R,7aS)-2-fluorotetrahydro-1H-pyrrolizin-7a(5H)-yl)methoxy)-8-(5-methylene-5,6,7,8-tetrahydro-1H-benzo[f]indazol-4-yl)pyrido[4′,3′:4,5]thieno [2,3-d]pyrimidin-4-yl)-6-methyl-1,4-oxazepan-6-ol] | 10.8 | 3.98 | 13.2 | – | – | – | 24.6 | 46.6 | 18.9
C[C@@H]1CCCc2cc3[nH]ncc3c(-c3nccc4c3sc3nc(OC[C@@]56CCCN5C[C@H](F)C6)nc(N5CCOC[C@@](C)(O)C5)c34)c21 [Ex-116] | 9.84 | 4.87 | 17.9 | – | – | – | 46.4 | 56.6 | 36.4
C[C@@]1(O)COCCN(c2nc(OC[C@@]34CCCN3C[C@H](F)C4)nc3sc4c(-c5c6cn[nH]c6cc6ccc(F)c(Cl)c56)nccc4c23)C1 [Ex-162] | 43.6 | 19.8 | 47.5 | 106 | 133 | 48 | – | – | –

Now from value to molecule, other results behind:

IC50 (KRAS-WT) [nM] | IC50 (KRAS-G12D) [nM] | IC50 (KRAS-G12V) [nM] | IC50 (MKN-1 cells; 2 hours compound incubation) [nM] | IC50 (AsPC-1 cells; 2 hours compound incubation) [nM] | IC50 (SW620 cells; [2]) [nM] | Compound | IC50 (MKN-1 cells; [1]) [nM] | IC50 (AsPC-1 cells; KRAS-G12D, 2 hours) [nM] | IC50 (SW620 cells; SW-620, KRAS-G12V, 2 hours) [nM]
15.7 | 5.45 | 13.9 | 44.4 | 24 | 14.5 | CN(C)C[C@@]1(COc2nc(N3CCOC[C@@](C)(O)C3)c3c(n2)sc2c(-c4c(C5(F)CC5)c(Cl)cc5[nH]ncc45)nccc23)CC1(F)F [Ex-132, (6S)-4-(8-(6-chloro-5-(1-fluorocyclo-propyl)-1H-indazol-4-yl)-2-(((R)-1-((dimethylamino)-methyl)-2,2-di-fluorocyclopropyl)-methoxy)pyrido [4′,3′:4,5]thieno[2,3-d]pyrimidin-4-yl)-6-methyl-1,4-oxaze-pan-6-ol] | – | – | –
18.9 | 5.21 | 16.7 | 113 | 76.1 | 45.2 | CC(C)(C)c1c(Cl)cc2[nH]ncc2c1-c1nccc2c1sc1nc(OC[C@@]34CCCN3C[C@H](F)C4)nc(N3CCOC[C@@](C)(O)C3)c12 [Ex-156, (6S)-4-(8-(5-(tert-butyl)-6-chloro-1H-indazol-4-yl)-2-(((2R,7aS)-2-fluorotetrahydro-1H-pyrrolizin-7a(5H)-yl)methoxy)pyrido[4′,3′:4,5]thieno[2,3-d]pyrimidin-4-yl)-6-methyl-1,4-oxazepan-6-ol] | – | – | –
15.2 | 6.04 | 11.4 | 28.4 | 61.7 | 32.1 | C[C@@]1(O)COCCN(c2nc(OC[C@@]34CCCN3C[C@H](F)C4)nc3sc4c(-c5c6cn[nH]c6cc6cccc(Cl)c56)nccc4c23)C1 [Ex-161, (6S)-4-(8-(5-chloro-1H-benzo[f]indazol-4-yl)-2-(((2R,7aS)-2-fluorotetrahydro-1H-pyrrolizin-7a(5H)-yl)methoxy)pyrido[4′,3′:4,5]thieno[2,3-d]pyrimidin-4-yl)-6-methyl-1,4-oxazepan-6-ol] | – | – | –
7.25 | 3.17 | 5.49 | 25.8 | 31.4 | 13 | CCc1csc2cc3[nH]ncc3c(-c3nccc4c3sc3nc(OC[C@@]56CCCN5C[C@H](F)C6)nc(N5CCOC[C@@](C)(O)C5)c34)c12 [Ex-168, (6S)-4-(8-(5-ethyl-1H-thieno[3,2-f]indazol-4-yl)-2-(((2R,7aS)-2-fluorotetrahydro-1H-pyrrolizin-7a(5H)-yl)methoxy)pyrido [4′,3′:4,5]thieno[2,3-d]pyrimidin-4-yl)-6-methyl-1,4-oxazepan-6-ol] | – | – | –
